Experimental data taken from patent US20060264422A1, “Use of taurolidine as enhancer of the complement system” (priority 2005, published 2006).

What was measured:
complement system = assay: CH50 assay (hemolysis of sensitized sheep erythrocytes by human serum); format: biochemical
Procedure: Using the CH50 assay, it is possible to assess functionally the total activity of the complement system, especially the classic activation pathway. […] In accordance with the protocol, a dilution series (1:20-1:480) was prepared for each condition and washed sheep erythrocytes which had been preincubated with hemolysin reagent were then added. During subsequent incubation at 37° C. for exactly 1 hour the erythrocytes were lysed depending on the activity of the complement system. In each experiment, a negative control (no hemolysis), a sample with 50% hemolysis (CH50, by dilution with dist. water) and a sample with 100% hemolysis (CH100, by dilution with dist. water) were analyzed in each case. After a final centrifugation, in each case 1 ml of the supernatant of each sample was removed and the absorption at 541 nm was determined photometrically. The determined absorptions were finally plotted against the dilutions. The activity (or the ability to lyse) of the complement system under the respective conditions could be assessed by the shape of the curves (shift to the left=complement activation) and by determining the dilution at which 50% of the erythrocytes have been lysed.

C3a = assay: ELISA of complement anaphylatoxin C3a in serum; format: biochemical, human
Procedure: (§1) Complement anaphylatoxins C5a and C3a and the lytic complex (MAC, C5b-9) in the serum of healthy volunteers were determined quantitatively using commercially available ELISA (“enzyme-linked immunosorbent assay”) test systems. As described above, initially serum samples having various concentrations of taurolidine (0.1-5%, in parallel with samples containing Ringer solution in corresponding dilution ratios=controls) were incubated for 30 minutes at 37° C. The samples were then diluted according to the protocol of the manufacturer and pipetted into the wells of the microtiter plate. The subsequent incubation/washing steps were carried out according to the protocol of the manufacturer. […] The extinction was measured using an ELISA plate reader and the values were then converted to concentrations using the standard samples which had also been measured.

C5a = assay: ELISA of complement anaphylatoxin C5a in serum; format: biochemical, human
Procedure: as §1

[1] = tested on: membrane attack complex (MAC, C5b-9); assay: ELISA of lytic complex (MAC, C5b-9) in serum; format: biochemical, human; conditions: all dosis ranges studied (0.1-5% taurolidine); FIG. 7
Procedure: as §1

[2] = at 0.5% taurolidine (concentration maximum)

`O=S1(=O)CCN(CN2CCS(=O)(=O)NC2)CN1` [taurolidine, 4,4′-methylenebis-(1,2,4-thiadiazine-1,1-dioxide)] was tested, and the “hemolytic activity (activity of the complement system)” value (complement system; human serum of healthy volunteers incubated with 0.1-1% taurolidine, 30 min, 37° C., FIGS. 1-3) was “significantly increases”, the “complement activation (hemolytic activity), temperature dependence” value (complement system; incubation at 0-4° C., FIG. 2) was “not at 0-4 °C” and the C3a (C3a; at 0.1% taurolidine (minimum)) was “no or even a tendency of reduced”. The “formation of C3a” value (C3a; [2]) was “enhances the formation”, the “concentration of complement component C3a compared to untreated serum” value (C3a; serum with taurolidine 0.1-5%, 30 min, 37° C., FIG. 4) was “increased compared to untreated serum” and the C5a (C5a; at 0.1% taurolidine (minimum)) was “no or even a tendency of reduced”. The “formation of C5a” value (C5a; [2]) was “enhances the formation”, the “concentration of complement component C5a compared to untreated serum” value (C5a; serum with taurolidine 0.1-5%, 30 min, 37° C., FIGS. 5-6) was “increased compared to untreated serum” and the “serum concentration of the membrane attack complex (MAC)” value [1] was “elevated significantly”.
